Results taken from PubChem BioAssay (NCI).
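Protocol summary: plate cells (96-well), add compound at 5 concentrations, incubate 48 h, interpolate endpoints linearly. Here, GI50 denotes the concentration required for 50% inhibition of growth. TGI: total growth inhibition.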

Legend:
Assay in all cases: DTP human tumour cell line panel, 48 h
[1] = system: EKVX NSCLC
[2] = system: HL-60(TB) leukemia
[3] = system: IGROV1 ovarian
[4] = system: NCI-H23 lung
[5] = system: OVCAR-5 ovarian
[6] = system: SK-MEL-28 melanoma
[7] = system: SK-MEL-5 melanoma
[8] = system: SW-620 colon
[9] = system: CAKI-1 renal
[10] = system: SR leukemia

Cc1ccc(S(=O)(=O)N/N=C(/c2nc3ccc([N+](=O)[O-])cc3[nH]c2=O)C(O)c2ccc(C(O)/C(=N\NS(=O)(=O)c3ccc(C)cc3)c3nc4ccc([N+](=O)[O-])cc4[nH]c3=O)cc2)cc1 (centres undefined)
TGI [1]: > 100 µM
TGI [2]: 98.3 µM
TGI [3]: > 100 µM
TGI [4]: > 100 µM
TGI [5]: > 100 µM
TGI [6]: > 100 µM
TGI [7]: > 100 µM
TGI [8]: > 100 µM

CC(C)(C)C(C#N)(C#N)c1ccc(C(C#N)(C#N)C(C)(C)C)nn1
TGI [9]: > 100 µM
TGI [1]: > 100 µM
TGI [2]: > 100 µM
TGI [3]: > 100 µM
TGI [4]: > 100 µM
TGI [5]: > 100 µM
TGI [6]: > 100 µM
TGI [7]: > 100 µM
TGI [8]: > 100 µM

ClC(Cl)[Si]12OCCN(CCO1)CCO2
TGI [9]: > 100 µM
TGI [2]: > 100 µM
TGI [3]: > 100 µM
TGI [4]: > 100 µM
TGI [5]: > 100 µM
TGI [6]: > 100 µM
TGI [7]: > 100 µM
TGI [10]: > 100 µM
TGI [8]: > 100 µM

COc1cc2c3c(n(C)c(=O)c2cc1OC)-c1ccc(C#N)cc1C3=O
GI50 [9]: > 100 µM
TGI [9]: > 100 µM
GI50 [1]: > 100 µM
TGI [1]: > 100 µM
GI50 [3]: 30.5 µM
TGI [3]: > 100 µM
GI50 [4]: > 100 µM
TGI [4]: > 100 µM
GI50 [5]: > 100 µM
TGI [5]: > 100 µM
GI50 [6]: > 100 µM
TGI [6]: > 100 µM
GI50 [7]: > 100 µM
TGI [7]: > 100 µM
GI50 [8]: > 100 µM
TGI [8]: > 100 µM

O=C(CN1C(=O)S/C(=C\C(Cl)=C\c2ccccc2)C1=O)NC1C=CS(=O)(=O)C1 (centres undefined)
GI50 [9]: 1.65 µM
TGI [9]: 4.23 µM
GI50 [1]: 2.19 µM
TGI [1]: 6.06 µM
GI50 [3]: 1.31 µM
TGI [3]: 4.31 µM
GI50 [4]: 2.09 µM
TGI [4]: 7.17 µM
GI50 [5]: 2.31 µM
TGI [5]: 6.13 µM
GI50 [6]: 1.81 µM
TGI [6]: 3.9 µM
GI50 [7]: 1.72 µM
TGI [7]: 3.22 µM
GI50 [10]: 0.29 µM
TGI [10]: > 100 µM
GI50 [8]: 0.553 µM
TGI [8]: 2.86 µM

O=C(COc1cccc(/C=C2\CSc3ccccc3C2=O)c1)Nc1nccs1
GI50 [9]: 1.72 µM
TGI [9]: 6.33 µM
GI50 [1]: 7.21 µM
TGI [1]: 20.5 µM
GI50 [4]: 1.85 µM
TGI [4]: 8.79 µM
GI50 [5]: 3.08 µM
TGI [5]: 15.5 µM
GI50 [6]: 3.75 µM
TGI [6]: 12.4 µM
GI50 [7]: 2.38 µM
TGI [7]: 15.5 µM
GI50 [10]: 0.557 µM
TGI [10]: 2.44 µM
GI50 [8]: 1.95 µM
TGI [8]: 4.52 µM

C=CCc1cc(OC)c2c(c1)C(OC)CC(c1ccc(OC)c(OC)c1)O2 (centres undefined)
TGI [9]: > 100 µM
TGI [1]: > 100 µM
TGI [2]: > 100 µM
TGI [3]: > 100 µM
TGI [5]: > 100 µM
TGI [6]: > 100 µM
TGI [7]: > 100 µM
TGI [8]: > 100 µM

CC(=O)NNc1nc(C)c(C(=O)NNC(=O)C(=O)Nc2ccc(Cl)cc2Cl)s1
TGI [9]: 75.5 µM
TGI [1]: > 100 µM
TGI [2]: 99.2 µM
TGI [3]: > 100 µM
TGI [4]: 96.4 µM
TGI [5]: > 100 µM
TGI [6]: > 100 µM
TGI [7]: > 100 µM
TGI [8]: 50.2 µM

O=P(O)(O)C1(P(=O)(O)O)CC1
TGI [9]: > 100 µM
TGI [1]: > 100 µM
TGI [3]: > 100 µM
TGI [4]: > 100 µM
TGI [5]: > 100 µM
TGI [6]: > 100 µM
TGI [7]: > 100 µM
TGI [8]: > 100 µM

N=c1c2c(=N)n3c(nc2nc2n1-c1ccccc1Sc1ccccc1-2)sc1cc(Cl)ccc13
GI50 [9]: 1.94 µM
TGI [9]: > 100 µM
GI50 [1]: 1.24 µM
TGI [1]: 7.46 µM
GI50 [3]: 3.51 µM
TGI [3]: 35.4 µM
GI50 [4]: 1.15 µM
TGI [4]: 7.02 µM
GI50 [5]: 7.55 µM
TGI [5]: 38.9 µM
GI50 [6]: 2.65 µM
TGI [6]: 13.6 µM
GI50 [7]: 1.12 µM
TGI [7]: 4 µM
GI50 [10]: 2.77 µM
TGI [10]: > 100 µM
GI50 [8]: 3.14 µM
TGI [8]: 71.1 µM
